Entries after “also recorded” stand apart in the source; their conditions may differ.
Columns and labels:
[1] = test system: angiotensin II (AII)-induced AAA; assay: AII-induced AAA mouse model, post-treatment; assay type: in vivo
Text: To determine if senescence is a major cause of aneurysm development, the association between senescence and aneurysms using the angiotensin II (AII)-induced AAA model was investigated. Mice were infused AII for four weeks using osmotic mini-pump implantation into Apoe^−/− transgenic mouse.
To investigate the therapeutic potential of ketotherapy for abdominal aortic aneurysm (AAA), Ketogenic-diet (KD) and Ketone-ester (KE) were provided to angiotensin II (AII)-induced mouse model of AAA (FIG. 6). […] After completing AII infusion, the mice were post-treated with KD and KE for two to four weeks.
To investigate the time-dependent reduction of aorta diameter, the inner diameter of the aorta using ultrasound analysis was measured.

normal SMCs (NC) = assay: Caspase 3 activity assay on normal SMCs; assay type: cell-based; conditions: FIG. 2I
Protocol: FIGS. 2A-2L. (a) Cytotoxicity assay of normal smooth muscle cells (NS) and senescent smooth muscle cells (SMCs). Replicative senescent SMCs (RS) and premature senescent SMCs, stimulated by H2O2 (HP), arsenic (Ars), and Nutlin 3a (Nut) treatment were treated with βHB, s-βHB, and ABT-737. (b) Flow cytometry analysis of apoptosis by βHB or s-βHB in radiation (10 Gy)-induced senescent SMC. (c) Quantitation of apoptotic cell and senescent cell after treating βHB and s-βHB in radiation-induced senescent SMC. (d) Representative aorta image of AII-infused mice with post-treatment of ABT-737, βHB and s-βHB. (e) External diameter of abdominal aorta infused with AII and post-treated with ABT-737 βHB and s-βHB. (f) SA-βGal activity assay of the whole aorta infused with AII, and post-treated with ABT-737, KD, or KE. (g) Quantitation of senescent area on aorta of AII-infused mice, and post-treated with KD, KE and ABT-737. (h) TUNEL assay on the abdominal aorta of AII infused mice, and treated with ABT-737, βHB, or s-βHB. SM-α Actin (SMA) and DAPI are co-stained after TUNEL reaction. (i) Caspase 3 activity assay on normal SMCs (NC) treated with βHB, or s-βHB, and ABT-737 comparing to normal cells pretreated with Nutlin-3a. (j) Caspase 3 activity assay on senescent SMCs (SNC) treated with βHB, or s-βHB, and ABT-737 compared to senescent cells pretreated with pifithrin-α. (k) Western blot analysis for p53 and puma expression on abdominal aorta tissue from mice treated with AII or KE. (I) Immunohistochemistry staining for puma expression on abdominal aorta infused by AII and post-treated with KE.
To overcome the anti-apoptotic barrier of senescence cells, senolytics usually target p53/Bcl2 cascades. Moreover, p53 is considered as a barrier to prevent apoptosis in senescence cells. Therefore, it was investigated if βHB-mediated apoptosis is p53 dependent. […] To further validate p53 dependent apoptosis on AAA, p53 activation and puma expression were investigated. […] In addition, inflammatory response accompanying the apoptosis of senescence cells was observed specifically in the abdominal aorta tissue, while systemic inflammation decreased during ketotherapy (FIGS. 10A-F). […] Ketotherapy can lower the blood pressure caused by AII infusion, which is not the case with ABT-737 (FIGS. 10H-J).

[2] = test system: angiotensin II (AII)-induced AAA; assay: AII-induced AAA mouse model, post-treatment; assay type: in vivo; conditions: injection every other day for two weeks, FIG. 2E
[3] = Metabolic alterations by post-treatment; assay type: in vivo, mouse; conditions: four weeks, FIG. 7
Text: In order to identify the primary factors for reversing AAA formation, metabolic alterations by post-treatment were investigated. […] Thus, abnormal lipid metabolism caused by KD is unlikely required or helpful for AAA recovery.

[4] = test system: AII-induced AAA development; assay: Pretreatment with ketotherapy in AII-induced AAA; assay type: in vivo, mouse; conditions: FIG. 8A-C
Text: Senescence is considered to be major risk factor that promotes AAA development. […] To determine whether vascular senescence is critical for AAA formation, senescence was prevented by pretreatment with ketotherapy.
(§1) To confirm the possibility that the therapeutic effect of βHB on AAA is not only applied to AII-induced AAA, the CaCl2)-induced AAA animal model was also examined as well (FIG. 5A).

CaCl2-induced AAA = CaCl2-induced AAA animal model, post-treatment; assay type: in vivo, mouse
Protocol: FIGS. 5A-5J. (a) Representative image of aorta which developed CaCl2)-induced AAA, and post-treated with KD, KE, βHB, s-βHB, or ABT-737. KD is provided to mice for 4 weeks, KE is administrated with drinking water, βHB, s-βHB or ABT-737 are IP injected for 2 weeks with 48h intervals. (b) Incidence of AAA by CaCl2) treatment and proportion of mice recovered from the AAA after post-treatment of KD, KE, βHB and s-βHB for 2 weeks. (c) Time-dependent observation of inner diameter after CaCl2) treatment and post-treatment of KD or KE (28˜56 days after surgery). (d) Comparison of ultrasound images of CaCl2)-induced AAA to the identical aorta post-treated with βHB for 2 weeks. (e) H&E staining of aorta from the mice developed with CaCl2)-induced AAA, and post-treated with KD, KE, βHB, and s-βHB. (f) SA β-Gal activity assay on aorta which developed CaCl2)-induced AAA, and post-treated with KD, KE, βHB, s-βHB, or ABT-737. (g) Quantitation of senescent area on aorta developed with CaCl2)-induced AAA, and post-treated with KD, KE, βHB, s-βHB. (h) Verhoeff Van Gieson/EVG staining of abdominal aorta developed with CaCl2)-induced AAA, post-treated with KD, KE, βHB and s-βHB. (i) Average number of elastic fibers on abdominal aorta presented at FIG. 5H. (j) Measurement of Pulse Wave Velocity (PWV) on CaCl2)-infused mice with post-treatment of KD, KE, βHB, and s-βHB.
as §1
To further validate the therapeutic efficacy of s-βHB on aneurysms, we used a CaCl2-induced AAA animal model as well as an angiotensin II infusion model. […] Two-way ANOVA, s-βHB vs βHB, #P<0.01, n=10. Since the elimination of senescent SMCs is critical for the recovery of AAA, we investigated that s-βHB is also effective to remove senescent cells in CaCl2)-induced aneurysms. […] Student's T-test for s-βHB vs βHB, ^#P<0.05, n=8.

[5] = test system: aortic dissection (TAD, AAD); assay: BAPN + AngII mouse model of aortic dissection; assay type: in vivo
Protocol: (a) schematic description of aortic dissection model and ketone treatment. Five-week-old C57BL/6 mice were continuously treated with β-aminopropionitrile (BAPN, 3 g/L/day in drinking water) for 28 days. To test the impacts of ketone body, BAPN-treated mice at day 17 to day 31 were given ketone ester (KE, D-BHB 1-3 butanediol monoester) (20 g/L and 50 gL at 5 mL per day) in drinking water. Further, the BAPN-treated mice, with or without ketone treatment, were continuously infused with angiotensin (AngII, 1.44 mg/kg/day) for three days via subcutaneously implanted osmotic pumps). Three days after AngII infusion, the mice were euthanized to assay for aortic dissection.
Five week old C57BL/6 mice were continuously treated with β-aminopropionitrile (BAPN, 3 g/L/day in drinking water)) for 28 days. To test the impacts of ketone body, BAPN-treated mice at day 17 to day 31 were given ketone ester (KE, D-BHB 1-3 butanediol monoester) (20 g/L and 50 g/L) in drinking water. Further, the BAPN-treated mice, with or without ketone treatment, were continuously infused with angiotensin (AngII, 1.44 mg/kg/day) for three days via subcutaneously implanted osmotic pumps). Three days after AngII infusion, the mice were euthanized for assay aortic dissection.

[6] = Soto-Mota et al. 2019; cited from earlier work

CN(C)CC[C@H](CSc1ccccc1)Nc1ccc(S(=O)(=O)NC(=O)c2ccc(N3CCN(Cc4ccccc4-c4ccc(Cl)cc4)CC3)cc2)cc1[N+](=O)[O-] [ABT-737, reference compound]
TUNEL assay, apoptosis of senescent plaque in the aneurysm ([1]; FIG. 2H): induced targeted apoptosis of senescent plaque
branched elastic fibers, Verhoeff Van Gieson/EVG stain ([1]; FIG. 3C): less branched elastic fibers
number of elastic layers / elastic recovery ([1]; FIG. 3D): less effective on elastic recovery
aortic dissection ([1]; blood clots inside aneurysm plaque, FIG. 3B): caused aortic dissection
volume of aneurysm plaque ([1]; injected): successfully reduced
AAA on whole aorta images ([1]; injected every other day for two weeks, FIG. 2D): successfully rescued
mice with abdominal rupture resulting in sudden death ([1]; injected mice, FIG. 3A): 30%
apoptosis in normal cells after p53 stabilization (normal SMCs (NC); after p53 stabilization by Nutlin 3a): triggers apoptosis
apoptosis in normal cells (NC) (normal SMCs (NC); without Nutlin 3a): did not induce apoptosis
external diameter of the abdominal aorta [2]: significantly reduced

C[C@@H](O)CCOC(=O)C[C@@H](C)O [KE, [(3R)-3-hydroxybutyl] (3R)-3-hydroxybutanoate]
aneurysm formation, ultrasound images of identical mouse aorta ([1]; FIG. 1D): reverts aneurysm formation
abdominal aorta stiffness, Pulse Wave Velocity (PWV) ([1]; FIG. 3H, FIG. 18A): ameliorated vascular stiffness; also recorded: reversed aneurysm-associated aortic stiffness
SMC markers (HEXIM1, Calponin 1, SM α-Actin) and dedifferentiation markers (Oct4, MMP2), Western blot ([1]; abdominal aorta, post-treatment, FIG. 3E): reversed all the markers of dedifferentiation and simultaneously recovered SMC markers
degenerative markers in PVAT ([1]; abdominal versus thoracic PVAT, FIG. 3G): specifically reverses degenerative markers, col1A1, RUNX2, and PU.1 in abdominal perivascular adipose (PVAT), not in thoracic PVAT
recovered proportion of AII-induced AAA ([1]; post-treatment 2 to 4 weeks after 4 weeks AII infusion, C57Bl6 ApoE−/− mice, AAA incidence 60%, FIG. 1A): 26%
proportion of AII-induced AAA ([1]; post-treatment 2 to 4 weeks, FIG. 1A): successfully reduced
enlarged external diameter of AAA ([1]; post-treatment of KD and KE, FIG. 1C): decreased significantly
collagen network, Masson's trichrome staining ([1]; post-treatment, FIG. 3F): reconstituted at the perivascular area
myofibroblast, SM α-Actin and FSP co-staining in aortic wall ([1]; post-treatment, FIGS. 17A-17B): increases
p53 activation and puma expression on abdominal aorta ([1]; post-treatment, Western blot and IHC, FIG. 2K): activated phosphorylation of p53 and elevated puma expression
metabolic alterations (body weight, fat mass, blood glucose, TG, liver lipid, insulin resistance) [3]: did not cause metabolic changes such as insulin resistance
AII-induced AAA development [4]: strongly inhibited
recovery from CaCl2-induced AAA (CaCl2-induced AAA; FIGS. 5A and 5B): Effective recovery
AAA progression (CaCl2-induced AAA; post-treatment after four weeks, FIG. 5C): inhibited AAA progression
incidence of TAD ([5]; 20 g/L and 50 g/L in drinking water, day 17 to day 31, FIG. 19B): significantly reduces
incidence of AAD ([5]; 20 g/L and 50 g/L in drinking water, day 17 to day 31, FIG. 19C): significantly reduces
survival rate ([5]; high dose 50 g/L, FIG. 19D): significantly increase
metabolic fate (hydrolysis) [6]: complete enzymatic hydrolysis to release R-βHB and R-butane-1,3-diol
